Consider 26 compounds from patent US20240199587A1, “HETEROCYCLIC COMPOUNDS” (Hoffmann-La Roche Inc., priority 2021, published 2024).

In this experiment the target is T1, MAGL (Homo sapiens, UniProt Q99685).
T1 sequence (Q99685 1-303): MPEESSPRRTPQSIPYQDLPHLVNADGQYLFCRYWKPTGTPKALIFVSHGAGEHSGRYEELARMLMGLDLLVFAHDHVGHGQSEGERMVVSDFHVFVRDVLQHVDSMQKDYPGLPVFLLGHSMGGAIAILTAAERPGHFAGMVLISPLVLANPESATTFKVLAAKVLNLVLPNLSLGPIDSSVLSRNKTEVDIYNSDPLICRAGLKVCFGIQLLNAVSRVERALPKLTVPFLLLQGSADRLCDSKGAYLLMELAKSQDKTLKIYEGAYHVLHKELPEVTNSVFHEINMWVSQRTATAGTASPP
Description: 2-AG assay (MAGL inhibitory activity, hydrolysis of 2-arachidonoylglycerol to arachidonic acid followed by mass spectrometry). It counts as biochemical. As to conditions: 8 μM 2-arachidonoylglycerol, 15 min pre-incubation, 30 min incubation at RT, RapidFire MS readout. Put shortly:
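Human MAGL ([…] final) pre-incubated 15 min at RT with compound in 50 mM TRIS, 1 mM EDTA, 0.01% Tween-20, 2.5% DMSO; 8 μM 2-AG then added for 30 min at RT. Acetonitrile quench with d8-arachidonic acid; arachidonic acid measured by RapidFire SPE–MS/MS, activity from arachidonic acid/d8 ratio.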
Usually IC50 stands for the concentration needed to halve the response being measured. Compound `CS(=O)(=O)c1ccc(COC2CN(C(=O)N3CC4(CC(n5cnc(C6CC6)n5)C4)C3)C2)c(F)c1` [Example 266, [6-(3-cyclopropyl-1,2,4-triazol-1-yl)-2-azaspiro[3.3]heptan-2-yl]-[3-[(2-fluoro-4-methylsulfonyl-phenyl)methoxy]azetidin-1-yl]methanone] returned a half-maximal inhibitory concentration (IC50) of 29 nM.
With `O=C(N1CC2(CC(Nc3ccc(C(F)(F)F)nn3)C2)C1)N1CC2(CC(n3cnc(C4CC4)n3)C2)C1` [Example 267, [6-(3-cyclopropyl-1,2,4-triazol-1-yl)-2-azaspiro[3.3]heptan-2-yl]-[6-[[6-(trifluoromethyl)pyridazin-3-yl]amino]-2-azaspiro[3.3]heptan-2-yl]methanone], it took 30.7 nM to reach half-maximal inhibition (IC50).
`O=C(N1CC2(CC(n3cnc(C4CC4)n3)C2)C1)N1CC2(C1)CN(S(=O)(=O)c1cncc(C(F)(F)F)c1)C2` [Example 268, [6-(3-cyclopropyl-1,2,4-triazol-1-yl)-2-azaspiro[3.3]heptan-2-yl]-[2-[[5-(trifluoromethyl)-3-pyridyl]sulfonyl]-2,6-diazaspiro[3.3]heptan-6-yl]methanone] registered an IC50 of 32.1 nM.
Regarding `CC1(NS(=O)(=O)N2CC3(CN(C(=O)N4CC5(CC(n6cnc(C7CC7)n6)C5)C4)C3)C2)CC1` [Example 269, 6-[6-(3-cyclopropyl-1,2,4-triazol-1-yl)-2-azaspiro[3.3]heptane-2-carbonyl]-N-(1-methylcyclopropyl)-2,6-diazaspiro[3.3]heptane-2-sulfonamide], the IC50 was 32.2 nM.
With `O=C(N1CC(Oc2ccc(C(F)(F)F)nc2)C1)N1CC2(CC(n3cnc(C4CC4)n3)C2)C1` [Example 270, (6-(3-cyclopropyl-1H-1,2,4-triazol-1-yl)-2-azaspiro[3.3]heptan-2-yl)(3-((6-(trifluoromethyl)pyridin-3-yl)oxy)azetidin-1-yl)methanone], inhibition was half-maximal at 32.7 nM (IC50).
In turn, `O=C(N1CCC(CNS(=O)(=O)c2ccc(Cl)cc2)CC1)N1CC2(CC(n3cnc(C4CC4)n3)C2)C1` [Example 271] yielded an IC50 of 33.8 nM.
`O=C(N1CC2(CC(n3cnc(C4CC4)n3)C2)C1)N1CC2(C1)CN(S(=O)(=O)CCc1ccc(F)cc1)C2` [Example 272, [6-(3-cyclopropyl-1,2,4-triazol-1-yl)-2-azaspiro[3.3]heptan-2-yl]-[2-[2-(4-fluorophenyl)ethylsulfonyl]-2,6-diazaspiro[3.3]heptan-6-yl]methanone] came in with an IC50 of 34.3 nM.
Take `O=C(N1CC2(CC(n3cnc(C4CC4)n3)C2)C1)N1CC2(C1)CN(S(=O)(=O)c1ccc(F)c(F)c1)C2` [Example 273, [6-(3-cyclopropyl-1,2,4-triazol-1-yl)-2-azaspiro[3.3]heptan-2-yl]-[2-(3,4-difluorophenyl)sulfonyl-2,6-diazaspiro[3.3]heptan-6-yl]methanone]: inhibition was half-maximal at 34.4 nM (IC50).
`O=C(N1CC(Oc2ccnc(C3CC3)n2)C1)N1CC2(CC(n3cnc(C4CC4)n3)C2)C1` [Example 274, [3-(2-cyclopropylpyrimidin-4-yl)oxyazetidin-1-yl]-[6-(3-cyclopropyl-1,2,4-triazol-1-yl)-2-azaspiro[3.3]heptan-2-yl]methanone] showed an IC50 of 34.8 nM.
In turn, `O=C(c1ccc(F)cc1C(F)(F)F)N1CC2(C1)CN(C(=O)N1CC3(CC(n4cnc(C5CC5)n4)C3)C1)C2` [Example 275, [2-[6-(3-cyclopropyl-1,2,4-triazol-1-yl)-2-azaspiro[3.3]heptane-2-carbonyl]-2,6-diazaspiro[3.3]heptan-6-yl]-[4-fluoro-2-(trifluoromethyl)phenyl] methanone] yielded an IC50 of 35.3 nM.
`O=C(N1CC(CNS(=O)(=O)c2ccc(C(F)(F)F)cc2)C1)N1CC2(CC(n3cnc(C4CC4)n3)C2)C1` [Example 276, N-[[1-[6-(3-cyclopropyl-1,2,4-triazol-1-yl)-2-azaspiro[3.3]heptane-2-carbonyl]azetidin-3-yl]methyl]-4-(trifluoromethyl)benzene-sulfonamide]: half-maximal inhibition (IC50) was put at 35.7 nM.
With `O=C(N1CC2(CC(NC(=O)C3(C(F)(F)F)CC3)C2)C1)N1CC2(CC(n3cnc(C4CC4)n3)C2)C1` [Example 277, N-[2-[6-(3-cyclopropyl-1,2,4-triazol-1-yl)-2-azaspiro[3.3]heptane-2-carbonyl]-2-azaspiro[3.3]heptan-6-yl]-1-(trifluoromethyl) cyclo-propanecarboxamide], the IC50 worked out at 37.2 nM.
With `O=C(N1CC2(CC(n3cnc(C4CC4)n3)C2)C1)N1CC2(C1)CN(S(=O)(=O)c1cnccc1Cl)C2` [Example 278, [2-[(4-chloro-3-pyridyl)sulfonyl]-2,6-diazaspiro[3.3]heptan-6-yl]-[6-(3-cyclopropyl-1,2,4-triazol-1-yl)-2-azaspiro[3.3]heptan-2-yl]methanone], the IC50 was determined as 37.3 nM.
`CC(C)(C(=O)O)c1cccc(OC2CN(C(=O)N3CC4(CC(n5cnc(C6CC6)n5)C4)C3)C2)c1` [Example 279, 2-[3-[1-[6-(3-cyclopropyl-1,2,4-triazol-1-yl)-2-azaspiro[3.3]heptane-2-carbonyl]azetidin-3-yl]oxyphenyl]-2-methyl-propanoic acid] returned an IC50 of 38 nM.
The same measure for `O=C(N1CC(Oc2ccc(C3CC3)nn2)C1)N1CC2(CC(n3cnc(C4CC4)n3)C2)C1` [Example 280, [3-(6-cyclopropylpyridazin-3-yl)oxyazetidin-1-yl]-[6-(3-cyclopropyl-1,2,4-triazol-1-yl)-2-azaspiro[3.3]heptan-2-yl]methanone]: 39.4 nM.
As for `Cc1noc(C)c1S(=O)(=O)N1CC2(CN(C(=O)N3CC4(CC(n5cnc(C6CC6)n5)C4)C3)C2)C1` [Example 281, [6-(3-cyclopropyl-1,2,4-triazol-1-yl)-2-azaspiro[3.3]heptan-2-yl]-[2-(3,5-dimethylisoxazol-4-yl)sulfonyl-2,6-diazaspiro[3.3]heptan-6-yl]methanone], the IC50 was 41.3 nM.
Regarding `COc1ccc(S(=O)(=O)N2CC3(CN(C(=O)N4CC5(CC(n6cnc(C7CC7)n6)C5)C4)C3)C2)cc1` [Example 282, [6-(3-cyclopropyl-1,2,4-triazol-1-yl)-2-azaspiro[3.3]heptan-2-yl]-[2-(4-methoxyphenyl)sulfonyl-2,6-diazaspiro[3.3]heptan-6-yl]methanone], the IC50 came out at 44.6 nM.
Turning to `O=C(N1CC(Oc2ccnc(C(F)(F)F)n2)C1)N1CC2(CC(n3cnc(C4CC4)n3)C2)C1` [Example 283, [6-(3-cyclopropyl-1,2,4-triazol-1-yl)-2-azaspiro[3.3]heptan-2-yl]-[3-[2-(trifluoromethyl)pyrimidin-4-yl]oxyazetidin-1-yl]methanone], the IC50 was determined as 48.3 nM.
With `O=C(N1CC2(CC(n3cnc(C4CC4)n3)C2)C1)N1CC2(C1)CN(S(=O)(=O)N1CCCC1)C2` [Example 284, [6-(3-cyclopropyl-1,2,4-triazol-1-yl)-2-azaspiro[3.3]heptan-2-yl]-(2-pyrrolidin-1-ylsulfonyl-2,6-diazaspiro[3.3]heptan-6-yl)methanone], the IC50 was determined as 49.9 nM.
With `O=C(N1CC(Oc2cc(C(F)(F)F)ncn2)C1)N1CC2(CC(n3cnc(C4CC4)n3)C2)C1` [Example 285, [6-(3-cyclopropyl-1,2,4-triazol-1-yl)-2-azaspiro[3.3]heptan-2-yl]-[3-[6-(trifluoromethyl)pyrimidin-4-yl]oxyazetidin-1-yl]methanone], the IC50 amounted to 54.3 nM.
The same measure for `O=C(N1CC2(CC(n3cnc(C4CC4)n3)C2)C1)N1CC2(C1)CN(S(=O)(=O)c1cccc(Cl)n1)C2` [Example 286, [2-[(6-chloro-2-pyridyl)sulfonyl]-2,6-diazaspiro[3.3]heptan-6-yl]-[6-(3-cyclopropyl-1,2,4-triazol-1-yl)-2-azaspiro[3.3]heptan-2-yl]methanone]: 58.6 nM.
Compound `N#Cc1cccc(S(=O)(=O)N2CC3(CN(C(=O)N4CC5(CC(n6cnc(C7CC7)n6)C5)C4)C3)C2)c1` [Example 287, 3-[[6-[6-(3-cyclopropyl-1,2,4-triazol-1-yl)-2-azaspiro[3.3]heptane-2-carbonyl]-2,6-diazaspiro[3.3]heptan-2-yl]sulfonyl]benzonitrile] gave a concentration for half-maximal inhibition (IC50) of 59.4 nM.
`CC1(S(=O)(=O)N2CC3(CN(C(=O)N4CC5(CC(n6cnc(C7CC7)n6)C5)C4)C3)C2)CC1` [Example 288, [6-(3-cyclopropyl-1,2,4-triazol-1-yl)-2-azaspiro[3.3]heptan-2-yl]-[2-(1-methylcyclopropyl)sulfonyl-2,6-diazaspiro[3.3]heptan-6-yl]methanone] gave an IC50 of 62 nM.
With `O=C(N1CC(c2nnc(-c3ccc(F)cc3F)[nH]2)C1)N1CC2(CC(n3cnc(C4CC4)n3)C2)C1` [Example 289, [6-(3-cyclopropyl-1,2,4-triazol-1-yl)-2-azaspiro[3.3]heptan-2-yl]-[3-[5-(2,4-difluorophenyl)-4H-1,2,4-triazol-3-yl]azetidin-1-yl]methanone], half-maximal inhibition (IC50) required 62.1 nM.
Take `COc1cc(F)ccc1S(=O)(=O)N1CC2(CN(C(=O)N3CC4(CC(n5cnc(C6CC6)n5)C4)C3)C2)C1` [Example 290, [6-(3-cyclopropyl-1,2,4-triazol-1-yl)-2-azaspiro[3.3]heptan-2-yl]-[2-(4-fluoro-2-methoxy-phenyl)sulfonyl-2,6-diazaspiro[3.3]heptan-6-yl]methanone]: the IC50 is 70.7 nM.
Compound `O=C(c1ccc(F)cc1Cl)N1CC2(C1)CN(C(=O)N1CC3(CC(n4cnc(C5CC5)n4)C3)C1)C2` [Example 292, (2-chloro-4-fluoro-phenyl)-[2-[6-(3-cyclopropyl-1,2,4-triazol-1-yl)-2-azaspiro[3.3]heptane-2-carbonyl]-2,6-diazaspiro[3.3]heptan-6-yl]methanone] displayed an IC50 of 77.1 nM.
